Results: US9795650B2, “Romidepsin formulations and uses thereof” (Celgene Corporation, priority 2013, dated 2017)

Assay: Solubility of romidepsin in solvents
Assay type: physicochemical
Text: In one embodiment, the romidepsin liquid concentrate for dilution is formulated in a solvent system. […] Solubility of romidepsin was studied in the following solvents and solvent mixtures: glycerin:EtOH (1:1); PEG 300; PEG 400; Tween 80:EtOH (1:1); dimethylacetamide (DMA); SolutolHS15:EtOH (1:1); NMP; Water; EtOH:PEG 400 (1:1); EtOH;water (4:6); EtOH; EtOH:PG (80:20); EtOH:PG (60:40); EtOH:PG (40:60); EtOH:PG (20:80); PG; EtOH:PG (40:60)+10% water; EtOH:PG (40:60)+butylated hydroxyanizole (BHA)/butylated hydroxytoluebe (BHT); and EtOH:PG (40:60)+ascorbic acid.

Solubility in water: practically insoluble in water
Structure (SMILES): C/C=C1\NC(=O)[C@H]2CSSCC/C=C/[C@H](CC(=O)N[C@H](C(C)C)C(=O)N2)OC(=O)[C@H](C(C)C)NC1=O [Romidepsin]
